In ChEMBL document CHEMBL5291721, “A preclinical secondary pharmacology resource illuminates target-adverse drug reaction associations of marketed drugs” (Nat Commun, 2023):

Tests used:
[1] = target: Acetylcholinesterase (Homo sapiens, UniProt P22303); assay type: functional
[2] = target: T1, Adenosine receptor A3 (Homo sapiens, UniProt P0DMS8)
T1 sequence (P0DMS8 whole entry): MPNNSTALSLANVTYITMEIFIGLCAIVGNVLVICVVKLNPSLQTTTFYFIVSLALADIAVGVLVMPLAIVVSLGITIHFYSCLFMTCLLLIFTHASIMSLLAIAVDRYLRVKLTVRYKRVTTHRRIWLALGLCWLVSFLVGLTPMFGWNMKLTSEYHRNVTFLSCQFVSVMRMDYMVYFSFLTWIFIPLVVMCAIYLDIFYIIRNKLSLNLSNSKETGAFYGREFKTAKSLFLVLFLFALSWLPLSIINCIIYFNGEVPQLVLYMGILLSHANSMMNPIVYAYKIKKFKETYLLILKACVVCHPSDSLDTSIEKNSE

[3] = target: T2, Androgen receptor (Homo sapiens, UniProt P10275)
T2 sequence (P10275 whole entry): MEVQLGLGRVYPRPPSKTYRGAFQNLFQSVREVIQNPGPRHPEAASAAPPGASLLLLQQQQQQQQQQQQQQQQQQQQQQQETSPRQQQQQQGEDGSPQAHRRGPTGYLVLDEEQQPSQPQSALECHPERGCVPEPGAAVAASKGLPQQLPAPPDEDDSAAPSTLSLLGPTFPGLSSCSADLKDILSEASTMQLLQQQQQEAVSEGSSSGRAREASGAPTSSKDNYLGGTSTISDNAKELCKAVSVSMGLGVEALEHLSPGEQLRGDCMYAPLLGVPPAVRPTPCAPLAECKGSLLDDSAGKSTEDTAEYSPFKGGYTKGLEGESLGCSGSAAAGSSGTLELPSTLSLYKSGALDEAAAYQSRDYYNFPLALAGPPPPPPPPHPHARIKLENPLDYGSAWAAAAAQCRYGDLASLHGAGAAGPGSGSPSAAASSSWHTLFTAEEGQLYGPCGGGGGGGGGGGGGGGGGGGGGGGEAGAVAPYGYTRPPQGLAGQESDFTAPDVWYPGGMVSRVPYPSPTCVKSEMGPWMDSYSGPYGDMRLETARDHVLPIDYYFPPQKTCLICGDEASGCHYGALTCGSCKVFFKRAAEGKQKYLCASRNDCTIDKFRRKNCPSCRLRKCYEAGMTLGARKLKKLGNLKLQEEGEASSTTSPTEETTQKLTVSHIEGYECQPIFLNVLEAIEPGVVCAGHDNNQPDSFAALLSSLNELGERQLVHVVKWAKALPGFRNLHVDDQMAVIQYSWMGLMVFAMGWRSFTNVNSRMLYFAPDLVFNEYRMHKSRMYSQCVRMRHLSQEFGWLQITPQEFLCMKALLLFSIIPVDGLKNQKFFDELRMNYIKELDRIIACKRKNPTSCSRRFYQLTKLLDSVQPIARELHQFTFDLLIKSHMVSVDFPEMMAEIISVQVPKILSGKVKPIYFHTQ

[4] = target: D(3) dopamine receptor (Homo sapiens, UniProt P35462)
[5] = target: Gamma-aminobutyric acid receptor subunit alpha-1/alpha-2/beta-2/gamma-2 (Homo sapiens, UniProt P14867+P18507+P47869+P47870); assay type: protein-complex assay
Gamma-aminobutyric acid receptor subunit alpha-1/alpha-2/beta-2/gamma-2, sequence (P14867 whole entry): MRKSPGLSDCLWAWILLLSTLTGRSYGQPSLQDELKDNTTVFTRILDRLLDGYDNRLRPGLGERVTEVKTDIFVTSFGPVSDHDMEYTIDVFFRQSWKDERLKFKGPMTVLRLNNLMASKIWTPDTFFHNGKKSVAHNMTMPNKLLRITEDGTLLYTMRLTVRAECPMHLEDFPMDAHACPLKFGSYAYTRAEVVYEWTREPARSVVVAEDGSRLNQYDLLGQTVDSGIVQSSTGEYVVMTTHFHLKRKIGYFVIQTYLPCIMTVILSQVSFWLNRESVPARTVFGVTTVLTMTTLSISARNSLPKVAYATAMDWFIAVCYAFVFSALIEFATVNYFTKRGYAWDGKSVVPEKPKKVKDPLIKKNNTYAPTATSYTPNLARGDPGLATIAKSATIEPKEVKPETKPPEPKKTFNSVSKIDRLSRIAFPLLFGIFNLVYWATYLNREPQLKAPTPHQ
Gamma-aminobutyric acid receptor subunit alpha-1/alpha-2/beta-2/gamma-2, sequence (P47870 whole entry): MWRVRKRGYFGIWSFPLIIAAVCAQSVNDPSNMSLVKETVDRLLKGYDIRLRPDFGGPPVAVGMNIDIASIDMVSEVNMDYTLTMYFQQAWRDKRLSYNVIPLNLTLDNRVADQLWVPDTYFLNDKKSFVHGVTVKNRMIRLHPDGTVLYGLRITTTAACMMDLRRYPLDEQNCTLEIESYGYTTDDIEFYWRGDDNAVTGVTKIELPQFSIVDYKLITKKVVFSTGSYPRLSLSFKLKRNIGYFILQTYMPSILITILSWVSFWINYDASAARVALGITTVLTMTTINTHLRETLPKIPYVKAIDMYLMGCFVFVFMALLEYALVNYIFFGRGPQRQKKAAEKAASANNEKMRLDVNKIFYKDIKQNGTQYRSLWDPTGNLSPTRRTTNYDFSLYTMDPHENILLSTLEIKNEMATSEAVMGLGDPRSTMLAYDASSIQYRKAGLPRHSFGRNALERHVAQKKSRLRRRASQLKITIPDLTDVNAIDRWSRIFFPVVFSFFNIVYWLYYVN
Gamma-aminobutyric acid receptor subunit alpha-1/alpha-2/beta-2/gamma-2, sequence (P18507 whole entry): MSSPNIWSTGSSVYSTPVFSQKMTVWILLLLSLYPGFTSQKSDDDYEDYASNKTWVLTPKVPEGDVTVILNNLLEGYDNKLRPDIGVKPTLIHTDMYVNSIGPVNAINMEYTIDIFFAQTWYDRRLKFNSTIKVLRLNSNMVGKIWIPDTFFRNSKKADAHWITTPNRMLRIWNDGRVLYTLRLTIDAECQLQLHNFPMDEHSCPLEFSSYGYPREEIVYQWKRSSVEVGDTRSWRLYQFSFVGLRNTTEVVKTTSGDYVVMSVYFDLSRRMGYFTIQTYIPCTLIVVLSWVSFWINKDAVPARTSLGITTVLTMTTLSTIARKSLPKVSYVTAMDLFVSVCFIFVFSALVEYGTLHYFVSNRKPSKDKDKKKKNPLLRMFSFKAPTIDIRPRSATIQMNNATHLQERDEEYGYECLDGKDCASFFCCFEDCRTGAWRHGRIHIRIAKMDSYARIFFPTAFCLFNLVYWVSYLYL
Gamma-aminobutyric acid receptor subunit alpha-1/alpha-2/beta-2/gamma-2, sequence (P47869 whole entry): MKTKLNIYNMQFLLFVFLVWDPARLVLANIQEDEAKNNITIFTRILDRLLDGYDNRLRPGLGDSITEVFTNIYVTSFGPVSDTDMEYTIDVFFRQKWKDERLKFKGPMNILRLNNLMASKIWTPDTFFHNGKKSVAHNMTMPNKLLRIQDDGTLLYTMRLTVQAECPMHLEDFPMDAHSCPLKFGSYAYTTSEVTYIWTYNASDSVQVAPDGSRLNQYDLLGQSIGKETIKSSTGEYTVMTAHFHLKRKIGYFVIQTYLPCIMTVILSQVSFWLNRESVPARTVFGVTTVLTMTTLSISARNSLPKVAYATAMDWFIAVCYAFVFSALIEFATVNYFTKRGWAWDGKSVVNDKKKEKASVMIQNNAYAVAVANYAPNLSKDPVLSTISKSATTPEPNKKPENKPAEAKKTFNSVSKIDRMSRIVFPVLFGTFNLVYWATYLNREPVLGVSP

[6] = target: Histamine H3 receptor (Homo sapiens, UniProt Q9Y5N1)
[7] = target: T3, 5-hydroxytryptamine receptor 1A (Homo sapiens, UniProt P08908)
T3 sequence (P08908 whole entry): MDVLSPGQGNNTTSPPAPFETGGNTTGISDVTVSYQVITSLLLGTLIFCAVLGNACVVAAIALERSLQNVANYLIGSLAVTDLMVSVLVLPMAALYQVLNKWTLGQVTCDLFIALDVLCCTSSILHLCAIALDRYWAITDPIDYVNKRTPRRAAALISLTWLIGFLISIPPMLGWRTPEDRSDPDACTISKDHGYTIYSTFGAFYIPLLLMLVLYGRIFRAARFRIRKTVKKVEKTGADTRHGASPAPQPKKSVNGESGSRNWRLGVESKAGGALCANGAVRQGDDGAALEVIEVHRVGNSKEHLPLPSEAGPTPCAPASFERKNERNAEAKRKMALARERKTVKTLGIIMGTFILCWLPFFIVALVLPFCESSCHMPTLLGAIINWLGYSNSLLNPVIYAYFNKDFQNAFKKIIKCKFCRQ

[8] = target: 5-hydroxytryptamine receptor 2B (Homo sapiens, UniProt P41595); assay type: functional, cell-based
5-hydroxytryptamine receptor 2B, sequence (P41595 whole entry): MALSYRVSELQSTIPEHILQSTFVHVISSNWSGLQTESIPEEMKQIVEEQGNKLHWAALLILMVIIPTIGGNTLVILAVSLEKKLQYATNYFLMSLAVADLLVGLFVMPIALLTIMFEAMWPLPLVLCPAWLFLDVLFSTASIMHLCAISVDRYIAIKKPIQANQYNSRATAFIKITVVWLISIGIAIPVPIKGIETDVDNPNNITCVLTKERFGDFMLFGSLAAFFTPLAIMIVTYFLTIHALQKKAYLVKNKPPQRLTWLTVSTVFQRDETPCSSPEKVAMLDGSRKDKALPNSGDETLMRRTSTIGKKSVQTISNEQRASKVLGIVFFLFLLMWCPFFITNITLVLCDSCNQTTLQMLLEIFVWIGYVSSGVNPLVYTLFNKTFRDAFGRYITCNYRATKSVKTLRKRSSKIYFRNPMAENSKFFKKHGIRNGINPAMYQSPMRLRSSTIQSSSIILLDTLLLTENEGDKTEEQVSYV

[9] = target: Voltage-gated inwardly rectifying potassium channel KCNH2 (Homo sapiens, UniProt Q12809); assay type: functional; conditions: read-out: AC50
Voltage-gated inwardly rectifying potassium channel KCNH2, sequence (Q12809 whole entry): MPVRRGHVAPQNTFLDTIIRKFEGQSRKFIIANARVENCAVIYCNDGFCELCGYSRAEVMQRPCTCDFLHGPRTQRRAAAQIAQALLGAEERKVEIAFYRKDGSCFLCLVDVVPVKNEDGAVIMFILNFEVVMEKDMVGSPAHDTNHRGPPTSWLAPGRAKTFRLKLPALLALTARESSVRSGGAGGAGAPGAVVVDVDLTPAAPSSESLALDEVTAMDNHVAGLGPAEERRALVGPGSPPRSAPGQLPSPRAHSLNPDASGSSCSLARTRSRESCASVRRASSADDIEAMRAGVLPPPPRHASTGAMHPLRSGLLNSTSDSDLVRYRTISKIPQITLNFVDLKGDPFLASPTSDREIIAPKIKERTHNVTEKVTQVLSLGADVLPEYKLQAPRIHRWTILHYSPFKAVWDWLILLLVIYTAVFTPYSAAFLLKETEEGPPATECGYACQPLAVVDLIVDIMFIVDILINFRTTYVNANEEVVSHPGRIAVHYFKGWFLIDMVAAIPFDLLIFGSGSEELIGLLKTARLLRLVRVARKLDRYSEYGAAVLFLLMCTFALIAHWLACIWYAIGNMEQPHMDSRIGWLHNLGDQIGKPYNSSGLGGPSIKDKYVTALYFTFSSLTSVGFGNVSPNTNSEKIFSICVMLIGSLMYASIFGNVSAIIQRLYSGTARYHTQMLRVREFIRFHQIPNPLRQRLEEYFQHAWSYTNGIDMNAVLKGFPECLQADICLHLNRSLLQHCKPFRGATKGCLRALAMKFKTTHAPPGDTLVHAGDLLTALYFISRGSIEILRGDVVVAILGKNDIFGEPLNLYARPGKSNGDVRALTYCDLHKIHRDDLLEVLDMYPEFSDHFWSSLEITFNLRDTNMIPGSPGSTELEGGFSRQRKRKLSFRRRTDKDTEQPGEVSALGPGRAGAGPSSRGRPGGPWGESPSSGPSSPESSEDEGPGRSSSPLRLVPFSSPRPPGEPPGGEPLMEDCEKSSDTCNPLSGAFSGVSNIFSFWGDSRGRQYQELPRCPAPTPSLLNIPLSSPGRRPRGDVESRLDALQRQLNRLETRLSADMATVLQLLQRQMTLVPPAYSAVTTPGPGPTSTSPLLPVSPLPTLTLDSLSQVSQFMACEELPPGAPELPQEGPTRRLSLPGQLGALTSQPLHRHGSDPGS

[10] = target: cGMP-inhibited 3',5'-cyclic phosphodiesterase 3A (Homo sapiens, UniProt Q14432); assay type: functional
[11] = target: Prostaglandin G/H synthase 1 (Homo sapiens, UniProt P23219); assay type: functional
Prostaglandin G/H synthase 1, sequence (P23219 whole entry): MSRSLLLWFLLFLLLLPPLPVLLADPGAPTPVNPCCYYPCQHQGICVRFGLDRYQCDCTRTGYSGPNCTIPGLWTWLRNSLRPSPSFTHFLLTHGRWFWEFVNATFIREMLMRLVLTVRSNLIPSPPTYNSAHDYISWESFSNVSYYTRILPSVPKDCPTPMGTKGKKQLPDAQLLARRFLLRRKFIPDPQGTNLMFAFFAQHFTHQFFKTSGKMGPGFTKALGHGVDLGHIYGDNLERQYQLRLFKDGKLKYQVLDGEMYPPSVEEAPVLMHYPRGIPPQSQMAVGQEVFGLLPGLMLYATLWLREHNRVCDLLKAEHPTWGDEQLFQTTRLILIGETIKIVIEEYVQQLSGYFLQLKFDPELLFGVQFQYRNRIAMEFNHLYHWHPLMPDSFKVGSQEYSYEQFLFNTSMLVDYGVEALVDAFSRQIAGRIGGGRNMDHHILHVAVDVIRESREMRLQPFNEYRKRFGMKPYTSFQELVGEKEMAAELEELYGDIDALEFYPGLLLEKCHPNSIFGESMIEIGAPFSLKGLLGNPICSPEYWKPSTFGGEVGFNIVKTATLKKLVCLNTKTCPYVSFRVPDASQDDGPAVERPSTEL

[12] = target: T4, Thromboxane A2 receptor (Homo sapiens, UniProt P21731); assay type: functional, cell-based
T4 sequence (P21731 whole entry): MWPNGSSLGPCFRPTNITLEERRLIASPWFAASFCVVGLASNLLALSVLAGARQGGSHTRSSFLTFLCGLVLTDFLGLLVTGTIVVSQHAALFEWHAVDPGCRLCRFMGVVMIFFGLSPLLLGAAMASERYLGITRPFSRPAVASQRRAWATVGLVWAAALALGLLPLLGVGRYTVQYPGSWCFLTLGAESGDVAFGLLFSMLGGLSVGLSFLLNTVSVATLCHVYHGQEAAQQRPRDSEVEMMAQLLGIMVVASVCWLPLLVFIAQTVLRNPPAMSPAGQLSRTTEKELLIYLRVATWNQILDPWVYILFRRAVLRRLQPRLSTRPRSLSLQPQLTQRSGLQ

[13] = target: Gamma-aminobutyric acid receptor subunit alpha-1 (Rattus norvegicus, UniProt P62813)
Also: assay procedure not described here.

Acetylcholinesterase, sequence (P22303 whole entry): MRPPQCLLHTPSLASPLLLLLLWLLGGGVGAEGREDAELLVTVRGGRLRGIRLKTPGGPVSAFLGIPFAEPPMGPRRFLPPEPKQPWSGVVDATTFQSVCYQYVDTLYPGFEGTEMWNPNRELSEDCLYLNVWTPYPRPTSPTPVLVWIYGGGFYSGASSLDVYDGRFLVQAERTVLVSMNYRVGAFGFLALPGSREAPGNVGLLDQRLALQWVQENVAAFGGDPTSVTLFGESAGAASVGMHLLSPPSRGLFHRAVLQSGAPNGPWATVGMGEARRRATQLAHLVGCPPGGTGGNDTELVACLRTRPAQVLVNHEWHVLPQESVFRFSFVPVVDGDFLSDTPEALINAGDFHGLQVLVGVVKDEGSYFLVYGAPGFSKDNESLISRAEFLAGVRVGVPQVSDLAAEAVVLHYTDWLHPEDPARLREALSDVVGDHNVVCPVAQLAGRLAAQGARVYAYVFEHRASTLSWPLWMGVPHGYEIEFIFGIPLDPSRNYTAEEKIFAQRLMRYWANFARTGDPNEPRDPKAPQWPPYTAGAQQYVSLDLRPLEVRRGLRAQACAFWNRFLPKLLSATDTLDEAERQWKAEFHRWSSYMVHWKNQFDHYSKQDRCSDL

| Compound | AC50 [1] [µM] | AC50 [2] [µM] | AC50 [3] [µM] | AC50 [4] [µM] | AC50 [5] [µM] | AC50 [6] [µM] | AC50 [7] [µM] | AC50 [8] [µM] | AC50 [9] [µM] | AC50 [10] [µM] | AC50 [11] [µM] | AC50 [12] [µM] | AC50 [13] [µM] |
| --- | --- | --- | --- | --- | --- | --- | --- | --- | --- | --- | --- | --- | --- |
| N[C@H]1C(O)O[C@H](CO)[C@@H](O)[C@@H]1O (stereo partly specified) [GLUCOSAMINE] | > 30 | > 30 | > 30 | > 30 | > 30 | > 30 | > 30 | > 30 | > 30 | > 30 | > 30 | > 30 |  |
| CC(=O)[C@@]1(O)CC[C@H]2[C@@H]3C=C(C)C4=CC(=O)CC[C@]4(C)[C@H]3CC[C@@]21C | > 30 | > 30 | 0.0119 | > 30 | > 30 | > 30 | > 30 | > 30 | > 30 | > 30 | > 30 | > 30 |  |
| CCOC(=O)/C=C1\SC(N2CCCCC2)C(=O)N1C (stereo unspecified) [ETOZOLIN] | > 30 | > 30 | > 30 | > 30 | > 30 | > 30 | > 30 | > 30 | > 30 | > 30 | > 30 | > 30 |  |
| CCOc1ccccc1C(N)=O [ETHENZAMIDE] | > 30 | > 30 | > 30 | > 30 | > 30 | > 30 | > 30 | > 30 | > 30 | > 30 | > 30 | > 30 |  |
| CCOc1ccccc1OCC1CNCCO1 (stereo unspecified) [VILOXAZINE] | > 30 | > 30 | > 30 | > 30 | > 30 | > 30 | 9.72 | > 30 | > 30 | > 30 | > 30 | > 30 |  |
| CC(C)(C)N1CCC(c2ccccc2)(c2ccccc2)CC1 [BUDIPINE] | > 30 | > 30 | > 30 | > 30 | > 30 | > 30 | > 30 | > 30 | 6.5 | > 30 | > 30 | > 30 |  |
| CCN1CCCC1CNC(=O)c1cc(S(N)(=O)=O)ccc1OC (stereo unspecified) [SULPIRIDE] | > 30 | > 30 | > 30 |  | > 30 | > 30 | > 30 | > 30 | > 30 | > 30 | 15.8 | > 30 | > 30 |
| OB1OCc2cc(F)ccc21 [TAVABOROLE] | > 30 | > 30 | > 30 | > 30 | > 30 | > 30 | > 30 | > 30 | > 30 | 14.1 | > 30 | > 30 |  |
| C[N+]1(CCCCC[N+]2(C)CCCC2)CCCC1 [PENTOLINIUM] | > 30 | > 30 | > 30 | > 30 | > 30 | > 30 | > 30 | > 30 | > 30 | > 30 | > 30 | > 30 |  |
| Nc1ccc2cc3ccc(N)cc3nc2c1 [PROFLAVINE] | 1.84 | 10.2 | > 30 | 22.9 | > 30 | 16.3 | 17.2 | > 30 | 5 | > 30 | 5.49 |  |  |
| COc1cc([C@@H]2c3cc4c(cc3[C@H](O)[C@H]3COC(=O)[C@H]23)OCO4)cc(OC)c1OC [PODOFILOX] | > 30 | > 30 | > 30 | > 30 | > 30 | > 30 | > 30 | > 30 | > 30 | > 30 | > 30 | > 30 |  |
| CC(C)(C)NCC(O)COc1cccc2c1SCCC2 (stereo unspecified) [TERTATOLOL] | > 30 | > 30 | > 30 |  | > 30 | > 30 | 0.0569 | > 30 | > 30 | > 30 | > 30 | > 30 |  |
| CCCCOC(=O)C(=O)[C@H]1[C@H](C)C[C@H]2[C@@H]3C[C@H](F)C4=CC(=O)C=C[C@]4(C)[C@H]3[C@@H](O)C[C@@]21C [FLUOCORTIN BUTYL] | > 30 | 7.82 | 0.316 | > 30 | > 30 | > 30 | > 30 | > 30 | 16 | > 30 | > 30 | > 30 |  |
| NC1CCN(c2c(F)cc3c(=O)c(C(=O)O)cn(C4CC4)c3c2Cl)C1 (stereo unspecified) [CLINAFLOXACIN] | > 30 | > 30 | > 30 | > 30 | > 30 | > 30 | > 30 | > 30 | > 30 | > 30 | > 30 | > 30 |  |
